# Test results: ChEMBL document CHEMBL3734655, “Identification of camphor derivatives as novel M2 ion channel inhibitors of influenza A virus” (Medchemcomm, 2015)
# Activity calls are given as the source filed them. No cut-off for these calls is given here.
# Legend:
# Influenza A virus [1] = assay: Antiviral activity against M2 ion channel S31N mutant expressing amantadine-resistant Influenza A virus infected in MDCK cells preincubated for 30 mins followed by viral infection measured after 72 hrs by CCK-8 assay; type: functional, organism-based
# Influenza A virus [2] = assay: Antiviral activity against amantadine-resistant Influenza A virus (A/WSN/1933) infected in MDCK cells preincubated for 30 mins followed by viral infection measured after 72 hrs by CCK-8 assay; type: functional, organism-based; conditions: A/WSN/1933(H1N1)
SMILES,Activity (Influenza A virus [1]),Activity (Influenza A virus [2])
C[C@@H](N)[C@H]1C[C@H]2CC[C@]1(C)C2(C)C.Cl,inactive,inactive
CC1(C)[C@H]2CC[C@](C)(C2)[C@H]1CN,inactive,inactive
N[C@H]1C[C@@H]2CC[C@H]1C2,inactive,inactive
NC1CC2CCC1C2 (stereo not drawn),inactive,inactive
C[C@H]1[C@H]([C@H](C)N)C[C@@H]2C[C@H]1C2(C)C,inactive,inactive
CC1(C)[C@@H]2CC[C@@]1(C)[C@@H](CN)C2,inactive,inactive
C[C@H]1[C@H](CN)C[C@@H]2C[C@H]1C2(C)C,inactive,inactive
C[C@H]1[C@H](N)C[C@@H]2C[C@H]1C2(C)C,inactive,inactive
CC1(C)[C@@H]2CC[C@@]1(C)[C@@H](N)C2 (relative stereo),inactive,inactive
